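Results reflect a 48-hour exposure of cells in 96-well plates to compound at five concentrations. GI50 marks 50% less growth.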 Activity calls are given as the source filed them. No stated cut-off is given here; in the data, active = GI50 up to about 1.1 µM and inactive = higher.
Experiments:
Experiment in all cases: growth of human tumour cells (NCI), 48 h
OVCAR-5 = tested on: OVCAR-5
HCC 2998 = tested on: HCC 2998
UO-31 = tested on: UO-31
A549 = tested on: A549
COLO 205 = tested on: COLO 205
SK-MEL-28 = tested on: SK-MEL-28
SK-MEL-5 = tested on: SK-MEL-5
NCI-H522 = tested on: NCI-H522
786-0 = tested on: 786-0
SF-268 = tested on: SF-268
TK-10 = tested on: TK-10
T47D = tested on: T47D
MDA-MB-435 = tested on: MDA-MB-435
HOP-62 = tested on: HOP-62
IGROV-1 = tested on: IGROV-1
LOX IMVI = tested on: LOX IMVI
SNB-19 = tested on: SNB-19
SF-539 = tested on: SF-539
SW-620 = tested on: SW-620
HCT-15 = tested on: HCT-15
SNB-75 = tested on: SNB-75
DU-145 = tested on: DU-145
SK-OV-3 = tested on: SK-OV-3
OVCAR-3 = tested on: OVCAR-3
MOLT-4 = tested on: MOLT-4
NCI/ADR-RES = tested on: NCI/ADR-RES
PC-3 = tested on: PC-3
HT-29 = tested on: HT-29
U-251 = tested on: U-251
RPMI-8226 = tested on: RPMI-8226
UACC-62 = tested on: UACC-62
Hs-578T = tested on: Hs-578T
HL-60 = tested on: HL-60
OVCAR-4 = tested on: OVCAR-4
EKVX = tested on: EKVX
M14 = tested on: M14
BT-549 = tested on: BT-549
NCI-H460 = tested on: NCI-H460
SF-295 = tested on: SF-295
NCI-H226 = tested on: NCI-H226
UACC-257 = tested on: UACC-257
KM12 = tested on: KM12
HOP-92 = tested on: HOP-92
SK-MEL-2 = tested on: SK-MEL-2
Malme-3M = tested on: Malme-3M
SN12C = tested on: SN12C
HCT-116 = tested on: HCT-116
CAKI-1 = tested on: CAKI-1
NCI-H23 = tested on: NCI-H23
OVCAR-8 = tested on: OVCAR-8
RXF 393 = tested on: RXF 393
K562 = tested on: K562
ACHN = tested on: ACHN
CCRF-CEM = tested on: CCRF-CEM
MCF7 = tested on: MCF7
SR = tested on: SR
MDA-N = tested on: MDA-N
MDA-MB-231 = tested on: MDA-MB-231
A498 = tested on: A498

## CCCn1c(=O)c2nn3c(=O)n(CCC)c(=O)c3nn2c1=O
OVCAR-5
  GI50: > 100 µM (inactive)
HCC 2998
  GI50: > 100 µM (inactive)
UO-31
  GI50: > 100 µM (inactive)
A549
  GI50: > 100 µM (inactive)
COLO 205
  GI50: > 100 µM (inactive)
SK-MEL-28
  GI50: > 100 µM (inactive)
SK-MEL-5
  GI50: > 100 µM (inactive)
NCI-H522
  GI50: > 100 µM (inactive)
786-0
  GI50: > 100 µM (inactive)
SF-268
  GI50: > 100 µM (inactive)
TK-10
  GI50: > 100 µM (inactive)
T47D
  GI50: > 100 µM (inactive)
MDA-MB-435
  GI50: > 100 µM (inactive)
HOP-62
  GI50: > 100 µM (inactive)
IGROV-1
  GI50: > 100 µM (inactive)
LOX IMVI
  GI50: > 100 µM (inactive)
SNB-19
  GI50: > 100 µM (inactive)
SF-539
  GI50: > 100 µM (inactive)
SW-620
  GI50: > 100 µM (inactive)
HCT-15
  GI50: > 100 µM
SNB-75
  GI50: > 100 µM (inactive)
DU-145
  GI50: > 100 µM (inactive)
SK-OV-3
  GI50: > 100 µM (inactive)
OVCAR-3
  GI50: > 100 µM (inactive)
MOLT-4
  GI50: > 100 µM (inactive)
NCI/ADR-RES
  GI50: > 100 µM (inactive)
PC-3
  GI50: > 100 µM (inactive)
HT-29
  GI50: > 100 µM (inactive)
U-251
  GI50: > 100 µM (inactive)
RPMI-8226
  GI50: > 100 µM (inactive)
UACC-62
  GI50: > 100 µM (inactive)
Hs-578T
  GI50: > 100 µM (inactive)
HL-60
  GI50: > 100 µM (inactive)
OVCAR-4
  GI50: > 100 µM (inactive)
EKVX
  GI50: > 100 µM (inactive)
M14
  GI50: > 100 µM (inactive)
BT-549
  GI50: > 100 µM (inactive)
NCI-H460
  GI50: > 100 µM (inactive)
SF-295
  GI50: > 100 µM (inactive)
NCI-H226
  GI50: > 100 µM (inactive)
UACC-257
  GI50: > 100 µM (inactive)
KM12
  GI50: > 100 µM (inactive)
HOP-92
  GI50: > 100 µM (inactive)
SK-MEL-2
  GI50: > 100 µM (inactive)
Malme-3M
  GI50: > 100 µM (inactive)
SN12C
  GI50: > 100 µM (inactive)
HCT-116
  GI50: > 100 µM (inactive)
CAKI-1
  GI50: > 100 µM (inactive)
NCI-H23
  GI50: > 100 µM (inactive)
OVCAR-8
  GI50: > 100 µM (inactive)
RXF 393
  GI50: > 100 µM (inactive)
K562
  GI50: > 100 µM (inactive)
ACHN
  GI50: > 100 µM (inactive)
CCRF-CEM
  GI50: > 100 µM (inactive)
MCF7
  GI50: > 100 µM (inactive)
SR
  GI50: > 100 µM (inactive)
MDA-N
  GI50: > 100 µM (inactive)

## Cc1oc2nc(N(C)C)n3cnnc3c2c1C
OVCAR-5
  GI50: > 100 µM (inactive)
HCC 2998
  GI50: > 100 µM (inactive)
UO-31
  GI50: > 100 µM (inactive)
A549
  GI50: > 100 µM (inactive)
COLO 205
  GI50: > 100 µM (inactive)
SK-MEL-28
  GI50: > 100 µM (inactive)
SK-MEL-5
  GI50: > 100 µM (inactive)
NCI-H522
  GI50: > 100 µM (inactive)
786-0
  GI50: > 100 µM (inactive)
SF-268
  GI50: > 100 µM (inactive)
TK-10
  GI50: > 100 µM (inactive)
T47D
  GI50: > 100 µM (inactive)
MDA-MB-435
  GI50: > 100 µM (inactive)
HOP-62
  GI50: > 100 µM (inactive)
IGROV-1
  GI50: > 100 µM (inactive)
SNB-19
  GI50: > 100 µM (inactive)
SF-539
  GI50: > 100 µM (inactive)
SW-620
  GI50: > 100 µM (inactive)
HCT-15
  GI50: > 100 µM
SNB-75
  GI50: 50.6 µM (inactive)
DU-145
  GI50: > 100 µM (inactive)
SK-OV-3
  GI50: > 100 µM (inactive)
OVCAR-3
  GI50: > 100 µM (inactive)
MOLT-4
  GI50: > 100 µM (inactive)
MDA-MB-231
  GI50: > 100 µM (inactive)
NCI/ADR-RES
  GI50: > 100 µM (inactive)
PC-3
  GI50: > 100 µM (inactive)
HT-29
  GI50: > 100 µM (inactive)
U-251
  GI50: > 100 µM (inactive)
RPMI-8226
  GI50: > 100 µM (inactive)
UACC-62
  GI50: > 100 µM (inactive)
Hs-578T
  GI50: > 100 µM (inactive)
HL-60
  GI50: > 100 µM (inactive)
OVCAR-4
  GI50: > 100 µM (inactive)
EKVX
  GI50: > 100 µM (inactive)
M14
  GI50: > 100 µM (inactive)
BT-549
  GI50: > 100 µM (inactive)
NCI-H460
  GI50: > 100 µM (inactive)
SF-295
  GI50: > 100 µM (inactive)
NCI-H226
  GI50: > 100 µM (inactive)
UACC-257
  GI50: > 100 µM (inactive)
KM12
  GI50: > 100 µM (inactive)
HOP-92
  GI50: > 100 µM (inactive)
SK-MEL-2
  GI50: > 100 µM (inactive)
SN12C
  GI50: > 100 µM (inactive)
HCT-116
  GI50: > 100 µM (inactive)
CAKI-1
  GI50: > 100 µM (inactive)
NCI-H23
  GI50: > 100 µM (inactive)
OVCAR-8
  GI50: > 100 µM (inactive)
RXF 393
  GI50: > 100 µM (inactive)
K562
  GI50: > 100 µM (inactive)
ACHN
  GI50: > 100 µM (inactive)
CCRF-CEM
  GI50: > 100 µM (inactive)
MCF7
  GI50: > 100 µM (inactive)
SR
  GI50: > 100 µM (inactive)
A498
  GI50: > 100 µM (inactive)

From ChEMBL document CHEMBL1201862, “PubChem BioAssay data set” (2004)
